US20090325992A1, “COMPOUND HAVING CYCLIC GROUP BOUND THERETO THROUGH SPIRO BINDING AND USE THEREOF” (ONO PHARMACEUTICAL CO., LTD., priority 2006, published 2009)

Tests used:
[1] = target: T1, CXCR4 (human T cell strain CEM cells) (Homo sapiens, UniProt P61073); assay: Inhibition of binding human SDF-1 to CEM cells (125I-SDF-1); conditions: 4° C., 60 minutes
T1 construct: a human T cell strain in which CXCR4 is known to be expressed; endogenous in cells; host or cells: CEM cells (human T cell strain)
Experimental: Specifically, as a system of screening a compound that inhibits the binding between SDF-1 and CXCR4, for example a system of measuring the binding between iodine-labeled SDF-1 and a human T cell strain in which CXCR4 is known to be expressed is operable.
Study for Inhibition of Binding Human SDF-1 to CEM Cells
To human T cell strain CEM cells in a binding buffer (containing HEPES and BSA), the test compound and ^125I-SDF-1 (PerkinElmer) were added and the mixture was incubated at 4° C. for 60 minutes. The reacted CEM cells were rapidly filtrated with a GF/B membrane filter plate (Packard) to adsorb. The plate was washed with phosphate buffered saline (hereinafter abbreviated to PBS) three times and then dried. Microscint+20 (Packard) was added thereto. An amount of the radioactivity bound to the CEM cells was measured using Top Count (Packard) and inhibition (%) of the test compound was calculated according to the following equation:
Inhibition={(Et−Ea)/(Et−Ec)}×100 [Equation 1]
Et: Amount of radioactivity when the test compound is not added,
Ec: Amount of radioactivity when non-radioactive SDF-1 (Pepro Tech) is added in an amount of 1,000 times as much as ^125I-SDF-1 as a test compound, and
Ea: Amount of radioactivity when the test compound is added.

[2] = test system: CHL/IU (cell line derived from a Chinese hamster lung); assay: Phospholipidosis detecting system using fluorescent labeling phospholipid analog (NBD-PE); assay type: cell-based; conditions: for Rate of increase of phospholipid accumulation (%) (compound dose: 200 μM): CHL/IU cells, compound dose 200 μM, about 48 hours, relative to NBD-PE control; for Determination (phospholipidosis, NBD-PE system): positive = 25% or more of the maximum increase rate of amiodarone
Experimental: Investigation with Phospholipidosis Detecting System using Fluorescent Labeling Phospholipidosis Analog under Severity Condition (1) Phospholipid Accumulation Measurement 100 μL/well as required (1 dose 2 wells) of cell suspension of CHL/IU (cell line derived from a Chinese hamster lung) (7×10^4 cells/mL) prepared by MEM (minimum essential medium) culture medium was added to a 96-well plate (96-well clear-bottom plate), and cultured for about 24 hours. After culture, the supernatant of the 96-well plate was removed, and the 100 μL/well compounds of each concentration dissolved and suspended in an MEM including 25 μmol/L nitrobenzoxadiazole dipalmitoyl phosphatidylethanolamine (NBD-PE) (hereinafter abbreviated as a NPD-PE medium) were added and treated for about 48 hours. The treatment concentrations of each compound were set to be 5, 50, 100 and 200 μM. The positive control substance was set to be amiodarone hydrochloride, and the treatment concentrations were set to be 1.25, 2.5, 5, 10 and 20 μM. In addition, 5-well untreated controls (only MEM) and 5-well NBD-PE controls (made by means of adding a 1/100 amount of DMSO to the NBD-PE culture medium) were set per compound, and cultured in the same manner. After finishing the culture, the cultures were washed twice with phosphate buffered saline (hereinafter abbreviated as PBS) (−) 100 μL/well, and the MEM (100 μL) was added to all of the treatment wells including two empty wells for WST-1 background controls and cultured for about a half hour. The fluorescence intensities of each well were measured by using a microplate reader (manufactured by Molecular Devices Inc., SPECTRA max M2; the excitation wavelength 485 nm/fluorescence wavelength 535 nm). (2) Analysis Using the average values of each dose×2 wells, a phospholipid increase rate (%) to the NBD-PE control was calculated by using the following calculating formula: Rate of increase of phospholipid accumulation (%)=100×{(test compound fluorescence intensity−non-treated control fluorescence intensity)/(NBD-PE control fluorescence intensity−non-treated control fluorescence intensity)} [Equation 2] (3) Cytotoxicity Assay 96-well plate measured in the phospholipid accumulation measurement was measured by means of Plate Reader (manufactured by Molecular Devices Inc., SPECTRA max M2) with the main wavelength of 450 nm and the correct wavelength of 690 nm to calculate a Pre value. An amount of 5 μL/well of Premix WS T-1 was added to each of the 96-hole plates by which Pre measurement was conducted. After culture for 2 to 4 hours, the 96-well plate was measured as well as the Pre measurement to calculate an Aft value. Then, the background control value was subtracted from the each measured value. A value which was calculated by subtracting the Pre value from the Aft value was used, then the cell growth rate (%) was calculated by using the following calculating formula: Cell growth rate (%)=100×[(test substance OD)/(NBD-PE control OD)] [Equation 3] (4) Determination A test dose that indicated value of 25% or more of the maximum phospholipid accumulation increase rate of amiodarone which was the positive control was determined as positive. In addition, the dose whose cell growth rate was equal to or less than 50% in the cytotoxicity assay was not used for determination of existence or nonexistence of a phospholipidosis inductive effect.

[3] = Artificial lipid membrane binding using Biacore S51 system; conditions: for Value of binding response (RU): DOPA liposome, 50 μM compound, PBS/5% DMSO pH 7.4, 37° C., corrected value; for Determination (artificial lipid membrane binding): positive = corrected binding response 150 or more
Experimental: Artificial Lipid Membrane Binding Account by using Biacore® S51 System
10 mM of 1,2-dioleoyl-sn-glycero-3-phosphate monosodium salt (hereinafter abbreviated as DOPA) chloroform solution was evaporated to dryness by means of an aspirator, and 0.6 mL of PBS/5% dimethyl sulfoxide (hereinafter abbreviated as DMSO) was added. The chloroform solution was fully suspended by means of a vortex mixer, and the freezing and thawing were repeated for 5 times. Liposome was created by means of a liposome preparation instrument (manufactured by Avestin Inc.) and two syringes, and was diluted to 0.5 mM with PBS/5% DMSO just prior to immobilization.
(2) Measurement Compound Preparation
38 μl of 1×PBS is added to 2 μl of a DMSO solution (10 mM), and further the 360 μl of 1×PBS/5% DMSO was added and the 50 μM of final concentration in PBS/5% DMSO was prepared and measured.
All of the following analysis used Biacore® S51 system and the measurement conditions were set by Biacore S51 Control Soft.
The measurement temperature was set to be 37° C., and PBS/5% DMSO (pH 7.4 or 6.0) was used as a buffer. Series S Sensor Chip L1 was used for a sensor chip. DOPA was immobilized in one of the measuring spots on the sensor surface and the central spot was used as a reference.
Immobilization of liposome was conducted at a flow rate of 10 μL/min for about 3 minutes and then the compound was added at a flow rate of 30 μL/min and the interaction was measured. The measurement conditions are as follows:
Assay buffer: PBS/5% DMSO (pH 7.4) Measurement temperature: 37° C. Sensor chip: Series S Sensor Chip L1 Flow rate: 10 μL/min at the time of the liposome immobilization; 30 μL/min at the time of the measurement of interaction with the compound Regeneration: 20 mM CHAPS (3-[(3-cholamidopropyl)dimethylammonio]-1-propanesulfonate), isopropylalcohol/aqueous 50 mM sodium hydroxide solution=40/60 (volume ratio) mixture solution (60 seconds)
The data processing was conducted by means of method of Abdiche et al., (Analytical biochemistry, 328, 233-243 (2004)) by using Biacore S51 Evaluation Soft.
Regarding the value of binding response (RU) in which the value of reference was subtracted, it was divided by a sample molecular weight after minute error of the DMSO concentration included in the sample solution was corrected. In addition, the value obtained here was divided by an amount of capture at the time of the cycle because the value obtained here was proportional to the amount of capture of the liposome and the value was multiplied by a million to be considered as a corrected value (Corrected value=1,000,000×RU (test compound)/molecular quantity (test compound) RU (liposome)).
The compound wherein a value of the binding response after the correction was 150 or more was determined as positive.

[4] = Measurement of maximum plasma level (Cmax) and stationary state distribution volume (Vss); conditions: male, Crl:CD(SD), rat, iv, 1 mg/kg
Experimental: Measurement of Maximum Plasma Level (Cmax) and Stationary State Distribution Volume (Vss)
A compound to be evaluated is weighed, dissolved in WellSolve (trade name; manufactured by Celeste Corporation) which is heated to 60° C. and adjusted to 20 mg/mL; thereafter, the test compound is diluted by 10 times with distilled water for injection, and further diluted by 2 times with saline solution, by which intravenously administered solution is eventually made. A compound to be evaluated is dissolved in WellSolve which is heated to 60° C. and adjusted to 50 mg/mL; thereafter, the compound to be evaluated is diluted with distilled water for injection and adjusted to 1 mg/mL. Five compounds (one set) were mixed in the same amount and adjusted to final concentration of 0.2 mg/mL per one compound, by which orally administered solution is eventually made. […] The administration is conducted under fasting conditions; water is freely ingested. In the case of intravenous administration, a 0.35 mL of blood sample is taken from cervical vein by using Heparinized Syringe at 5 minutes, 15 minutes, 30 minutes, 1 hour, 2 hours, 4 hours, 6 hours, 8 hours, and 24 hours after administration. […] The obtained blood is stored in ice, and after centrifugation at 12,000 rpm for 3 minutes, blood plasma is fractionated. In the case of intravenous administration, the blood plasma sample preserved at a temperature of −80° C. is dissolved; inner standard solution (100 μL) and acetonitrile (2 mL) are added to the blood plasma sample (100 μL) and stirred, and the sample is centrifuged at 2,500 rpm for 10 minutes.
After the supernatant centrifuged is evaporated to dryness by means of a centrifugal concentrator, 67% dimethyl sulfoxide solution (150 μL) is added to the residue and dissolves them again and 20 μL of the solution is analyzed by means of LC/MS/MS.
Measurement device: Waters 2795 (manufactured by Waters Corporation) Analytical column: Unison UK-C18, 3.0 μm particle size, 2.0 mm×30 mm (manufactured by Imtakt Corporation) Analytical column temperature: Room temperature Flow rate: 200 μL/min Moving bed: 5 mM IPC-PFAA-7 solution/acetonitrile (9/1→1/9)
Measurement device: Quatro micro API (manufactured by Micromass Communications Inc.) Scan type: MPM
The monitor ion which was suitable for each sample was selected.
A portion of the compound to be intravenously administered was subjected to the following treatment. The blood plasma sample preserved at a temperature of −80° C. is dissolved; inner standard solution (50 μL) and acetonitrile (1 mL) are added to the blood plasma sample (50 μL) and stirred, and the sample is centrifuged at 3,000 rpm for 10 minutes. After the supernatant is evaporated to dryness by means of a centrifugal concentrator, the residue was redissolved in water/acetonitrile (1/1) and the solution is analyzed by means of LC/MS/MS under the following conditions.
Measurement device: 1200 series system (manufactured by Agilent Technologies) Analytical column: Asahipak OOD-50 2D, 2×150 mm (manufactured by Showa Denko K.K.) Analytical column temperature: Room temperature Moving bed: 5 mM IPC—PFAA-7 solution/acetonitrile (gradient) Flow rate: 200 μL/min

T1 sequence (P61073 whole entry): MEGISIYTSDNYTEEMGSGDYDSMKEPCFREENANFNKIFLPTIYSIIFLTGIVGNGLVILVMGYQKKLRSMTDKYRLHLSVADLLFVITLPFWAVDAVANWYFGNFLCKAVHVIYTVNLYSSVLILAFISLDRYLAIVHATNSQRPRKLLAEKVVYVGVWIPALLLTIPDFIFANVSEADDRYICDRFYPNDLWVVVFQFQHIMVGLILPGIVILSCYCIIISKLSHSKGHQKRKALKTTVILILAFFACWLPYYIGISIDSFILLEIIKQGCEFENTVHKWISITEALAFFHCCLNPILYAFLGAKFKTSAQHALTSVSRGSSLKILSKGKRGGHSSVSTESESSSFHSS

IC50 [1] [nM]	Value of binding response (RU) [3] [RU]	Determination (artificial lipid membrane binding) [3]	Vd [4] [L/kg]	Structure (SMILES)	Rate of increase of phospholipid accumulation (%) (compound dose: 200 μM) [2]	Determination (phospholipidosis, NBD-PE system) [2]
3	–	–	–	CCOC(=O)COc1ccc(CN(Cc2ncc[nH]2)Cc2nccn2CCCN2CCC3(CCN(C(CC)CC)CC3)C2)cc1 [Example 42, Ethyl [4-({[(1-{3-[8-(1-ethylpropyl)-2,8-diazaspiro[4.5]deca-2-yl]propyl}-1H-imidazol-2-yl)methyl] (1H-imidazol-2-ylmethyl)amino}methyl)phenoxy]acetate]	–	–
4.4	72.9	Negative	–	O=C(O)COc1ccc(CN(Cc2ncc[nH]2)Cc2nccn2CCCN2CCC3(CCN(C4CCCCC4)CC3)C2)cc1 [Example 41(6), (4-{[({1-[3-(8-cyclohexyl-2,8-diazaspiro[4.5]deca-2-yl)propyl]-1H-imidazol-2-yl}methyl)(1H-imidazol-2-ylmethyl)amino]methyl}phenoxy)acetic acid]	16	Negative
7.4	–	–	–	COC(=O)Cc1ccc(CN(Cc2ncc[nH]2)Cc2nccn2CCCN2CCC3(CCN(CC(C)C)CC3)C2)cc1 [Example 21(4), Methyl (4-{[(1H-imidazol-2-ylmethyl)({1-[3-(8-isobutyl-2,8-diazaspiro[4.5]deca-2-yl)propyl]-1H-imidazol-2-yl}methyl)amino]methyl}phenyl)acetate]	–	–
6.3	41.2	Negative	0.42	CCC(CC)N1CCC2(CCN(CCCn3ccnc3CN(Cc3cccc(OCC(=O)O)c3)Cc3ncc[nH]3)C2)CC1 [Example 43(1), [3-({[(1-{3-[8-(1-ethylpropyl)-2,8-diazaspiro[4.5]deca-2-yl]propyl}-1H-imidazol-2-yl)methyl](1H-imidazol-2-ylmethyl)amino}methyl)phenoxy]acetic acid]	14	Negative
13.6	–	–	–	CCC(CC)N1CCC2(CCN(CCCn3ccnc3CN(Cc3ccc4cc(OCC(=O)O)ccc4c3)Cc3ncc[nH]3)C2)CC1 [Example 43(3), {[6-({[(1-{3-[8-(1-ethylpropyl)-2,8-diazaspiro[4.5]deca-2-yl]propyl}-1H-imidazol-2-yl)methyl](1H-imidazol-2-ylmethyl)amino}methyl)-2-naphthyl]oxy}acetic acid]	–	–
20.7	23.4	Negative	1.1	CC(C)CN1CCC2(CC1)CCN(CCCn1ccnc1CN(Cc1ccc(CC(=O)O)cc1)Cc1ncc[nH]1)C2 [Example 22(4), (4-{[(1H-imidazol-2-ylmethyl)({1-[3-(8-isobutyl-2,8-diazaspiro[4.5]deca-2-yl)propyl]-1H-imidazol-2-yl}methyl)amino]methyl}phenyl)acetic acid]	16	Negative
9.3	–	–	–	CCC(CC)N1CCC2(CCN(CCCn3ccnc3CN(Cc3cccc(SCC(=O)O)c3)Cc3ncc[nH]3)C2)CC1 [Example 43(2), {[3-({[(1-{3-[8-(1-ethylpropyl)-2,8-diazaspiro[4.5]deca-2-yl]propyl}-1H-imidazol-2-yl)methyl](1H-imidazol-2-ylmethyl)amino}methyl)phenyl]thio}acetic acid]	–	–
4.3	–	–	–	CCOC(=O)CCCn1ccnc1CN(C)Cc1nccn1CCCN1CCC2(CCN(CC(C)C)CC2)C1 [Example 47(4), Ethyl 4-(2-{[({1-[3-(8-isobutyl-2,8-diazaspiro[4.5]deca-2-yl)propyl]-1H-imidazol-2-yl}methyl)(methyl)amino]methyl}-1H-imidazol-1-yl)butanoate]	–	–
6.6	28.3	Negative	0.36	CCC(CC)N1CCC2(CCN(CCCn3ccnc3CN(CCCC(=O)O)Cc3ncc[nH]3)C2)CC1 [Example 25(1), 4-{[(1-{3-[8-(1-ethylpropyl)-2,8-diazaspiro[4.5]deca-2-yl]propyl}-1H-imidazol-2-yl)methyl](1H-imidazol-2-ylmethyl)amino}butanoic acid]	16	Negative
4.5	63.6	Negative	–	O=C(O)COc1cccc(CN(Cc2ncc[nH]2)Cc2nccn2CCCN2CCC3(CCN(C4CCCCC4)CC3)C2)c1 [Example 41(7), (3-{[({1-[3-(8-cyclohexyl-2,8-diazaspiro[4.5]deca-2-yl)propyl]-1H-imidazol-2-yl}methyl)(1H-imidazol-2-ylmethyl)amino]methyl}phenoxy)acetic acid]	21	Negative
≤ 3	–	–	–	CCOC(=O)COc1ccc(CN(Cc2ncc[nH]2)Cc2nccn2CCCN2CCC3(CCN(C4CCCCC4)CC3)C2)cc1 [Example 40(12), Ethyl (4-{[({1-[3-(8-cyclohexyl-2,8-diazaspiro[4.5]deca-2-yl)propyl]-1H-imidazol-2-yl}methyl)(1H-imidazol-2-ylmethyl)amino]methyl}phenoxy)acetate]	–	–
≤ 3	–	–	–	CCOC(=O)COc1cccc(CN(Cc2ncc[nH]2)Cc2nccn2CCCN2CCC3(CCN(C4CCCCC4)CC3)C2)c1 [Example 40(13), Ethyl (3-{[({1-[3-(8-cyclohexyl-2,8-diazaspiro[4.5]deca-2-yl)propyl]-1H-imidazol-2-yl}methyl)(1H-imidazol-2-ylmethyl)amino]methyl}phenoxy)acetate]	–	–
4.4	–	–	–	CCOC(=O)CCc1ccc(CN(Cc2ncc[nH]2)Cc2nccn2CCCN2CCC3(CCN(C(CC)CC)CC3)C2)s1 [Example 42(4), Ethyl 3-[5-({[(1-{3-[8-(1-ethylpropyl)-2,8-diazaspiro[4.5]deca-2-yl]propyl}-1H-imidazol-2-yl)methyl](1H-imidazol-2-ylmethyl)amino}methyl)-2-thienyl]propanoate]	–	–
≤ 3	–	–	–	CCOC(=O)COc1cccc(CN(Cc2ncc[nH]2)Cc2nccn2CCCN2CCC3(CCN(C(CC)CC)CC3)C2)c1 [Example 42(1), Ethyl [3-({[(1-{3-[8-(1-ethylpropyl)-2,8-diazaspiro[4.5]deca-2-yl]propyl}-1H-imidazol-2-yl)methyl] (1H-imidazol-2-ylmethyl)amino}methyl)phenoxy]acetate]	–	–
